Patent US12156917B2, “CNP prodrugs with carrier attachment at the ring moiety” (ASCENDIS PHARMA GROWTH DISORDERS A/S, priority 2016, dated 2024)
Bridge positions count the residues as written; N and C are the ends. Ends that are not written are not given here.

Columns and labels:
Crl:CD1(ICR) mice = test: Evaluation of cardiovascular effects in the conscious telemetered mouse (subcutaneous administration); assay type: in vivo
Experimental: Male Crl:CD1(ICR) mice (age range 8-13 weeks and body weight range 27.3-35.6 g at start of dosing) were surgically implanted with a TA11PA-C10 telemetry transmitter (Data Sciences International (DSI)) in the carotid artery. The body of the transmitter was placed subcutaneously in the lateral flank of the mouse. The mice were dosed subcutaneously in a latin square crossover design with at least 72 hours between dosing occasions. […] At least four mice were included at each dose level. Blood pressure (systolic (SAP), diastolic (DAP) and mean (MAP) and heart rate (HR, derived from blood pressure), were recorded using a digital data capture system linked with a DSI™ Ponemah data acquisition and analysis system. The capture system allowed recording of the cardiovascular parameters whilst the mice were in individual cages. On the day of each test session the animals were weighed and a predose recording was performed for at least 60 min prior to dosing. Each mouse was returned to the home cage and the cardiovascular parameters were recorded for approximately 48 hours postdose. Blood pressure and HR were reported at the following time points: −30, −20, −10, 5, 15 and 30 min postdose and 1, 2, 6, 12, 18, 24, 30, 36, 42 and 48 hours postdose. Each time point was presented as the average value of five minute's recording prior to the time point. The monitoring period was selected to cover exposure to the test items both prior to and after Tnax.

[1] = in vivo; cited from earlier work
[2] = doses up to 15 μg/kg, healthy volunteers; cited from earlier work

Compound	MAP predose (mean±SD) (Crl:CD1(ICR) mice; predose, n = 4) [mmHg]	heart rate (HR) (Crl:CD1(ICR) mice; sc, 800 μg CNP-38 eq/kg, up to 48 hours postdose)	MAP 5 min post dose (mean±SD) (Crl:CD1(ICR) mice; sc, 800 μg CNP-38 eq/kg, n = 4) [mmHg]	MAP 15 min post dose (mean±SD) (Crl:CD1(ICR) mice; sc, 800 μg CNP-38 eq/kg, n = 4) [mmHg]	MAP 30 min post dose (mean±SD) (Crl:CD1(ICR) mice; sc, 800 μg CNP-38 eq/kg, n = 4) [mmHg]	half-life [1] [min]	blood pressure effect [2]
CC[C@H](C)[C@@H]1NC(=O)[C@H](CCCNC(=N)N)NC(=O)[C@H](CC(=O)O)NC(=O)[C@H](CC(C)C)NC(=O)[C@H](CCCCN)NC(=O)[C@H](CC(C)C)NC(=O)CNC(=O)[C@H](Cc2ccccc2)NC(=O)[C@@H](NC(=O)CNC(=O)[C@H](CCCCN)NC(=O)[C@H](CO)NC(=O)[C@H](CC(C)C)NC(=O)CNC(=O)[C@H](CCCCN)NC(=O)[C@H](CCCCN)NC(=O)[C@H](CC(N)=O)NC(=O)[C@H](C)NC(=O)CNC(=O)[C@H](CCCCN)NC(=O)[C@H](Cc2ccc(O)cc2)NC(=O)[C@H](CCCCN)NC(=O)[C@H](CCCNC(=N)N)NC(=O)[C@H](C)NC(=O)[C@H](CC(N)=O)NC(=O)[C@@H]2CCCN2C(=O)[C@H](Cc2c[nH]cn2)NC(=O)[C@H](CCC(=O)O)NC(=O)[C@H](CCC(N)=O)NC(=O)[C@@H](N)CC(C)C)CSSC[C@@H](C(=O)O)NC(=O)CNC(=O)[C@H](CC(C)C)NC(=O)CNC(=O)[C@H](CO)NC(=O)[C@H](CCSC)NC(=O)[C@H](CO)NC(=O)CNC1=O [CNP-38]	106.8 ± 13.4	not impacted	102.0 ± 7.5	89.5 ± 29.4	99.5 ± 25.2		
BMN-111: modified recombinant human C-type Natriuretic Peptide; 17 amino acids added to form a 39 amino acid CNP analog (PGQEHPNARKYKGANKKGLSKGCFGLKLDRIGSMSGLGC; disulfide 23-39; chains of the INN, looked up)						20	mild hypotension
